Data as given in patent US9358250B2, “Methods of using SCD1 antagonists” (Genentech, Inc., priority 2011, dated 2016).
pIC50: −log10 of the molar value. Where two headings read alike, the source gives them in different places.

Experiments:
[1] = molecular target: T1, SCD1 (Homo sapiens, UniProt O00767); settings: cited from earlier work
T1 sequence (O00767 1-359): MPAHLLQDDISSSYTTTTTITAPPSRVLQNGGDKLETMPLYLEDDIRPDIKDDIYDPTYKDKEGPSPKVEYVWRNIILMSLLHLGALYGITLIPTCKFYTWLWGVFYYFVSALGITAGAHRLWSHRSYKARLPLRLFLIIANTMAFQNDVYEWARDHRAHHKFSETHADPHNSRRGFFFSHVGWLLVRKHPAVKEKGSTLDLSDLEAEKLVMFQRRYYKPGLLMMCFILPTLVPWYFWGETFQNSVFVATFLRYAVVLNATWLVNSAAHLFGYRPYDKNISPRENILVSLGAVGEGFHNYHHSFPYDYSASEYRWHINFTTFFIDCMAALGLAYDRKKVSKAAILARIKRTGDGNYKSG

[2] = molecular target: T1, SCD1; settings: cited from earlier work; for pIC50: human SCD1
[3] = molecular target: T2, rat SCD1 (Rattus norvegicus, UniProt P07308); settings: cited from earlier work
T2 sequence (P07308 1-358): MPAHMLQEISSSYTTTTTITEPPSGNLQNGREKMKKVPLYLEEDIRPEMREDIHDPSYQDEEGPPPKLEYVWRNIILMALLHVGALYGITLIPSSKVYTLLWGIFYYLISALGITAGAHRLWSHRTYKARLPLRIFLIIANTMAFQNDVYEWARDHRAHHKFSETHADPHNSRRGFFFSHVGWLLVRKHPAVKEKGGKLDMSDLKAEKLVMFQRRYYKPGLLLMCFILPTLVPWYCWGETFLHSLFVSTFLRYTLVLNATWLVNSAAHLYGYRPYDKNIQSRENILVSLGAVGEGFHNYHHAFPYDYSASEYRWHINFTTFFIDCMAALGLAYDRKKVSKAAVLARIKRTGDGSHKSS

[4] = 30 min incubation; cited from earlier work
[5] = molecular target: Δ5 desaturase (Homo sapiens, UniProt O60427); settings: cited from earlier work
[6] = 30 min incubation; cited from earlier work; remark: listed apart in the source
[7] = molecular target: T3, Δ6 desaturase (Homo sapiens, UniProt O95864); settings: cited from earlier work
T3 sequence (O95864 1-444): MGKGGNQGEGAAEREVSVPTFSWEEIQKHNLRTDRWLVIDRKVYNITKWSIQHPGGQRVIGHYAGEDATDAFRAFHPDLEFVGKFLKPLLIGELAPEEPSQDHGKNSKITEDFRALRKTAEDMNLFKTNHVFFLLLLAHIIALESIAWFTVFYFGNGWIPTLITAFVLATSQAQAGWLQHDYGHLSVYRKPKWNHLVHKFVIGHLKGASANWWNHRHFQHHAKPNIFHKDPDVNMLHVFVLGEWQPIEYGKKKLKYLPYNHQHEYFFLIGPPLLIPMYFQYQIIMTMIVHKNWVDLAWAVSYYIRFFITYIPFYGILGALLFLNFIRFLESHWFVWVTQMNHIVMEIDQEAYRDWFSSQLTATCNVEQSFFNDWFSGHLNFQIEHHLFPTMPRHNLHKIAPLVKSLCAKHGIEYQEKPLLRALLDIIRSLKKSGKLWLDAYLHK

[8] = system: total fatty acid synthesis; assay: FGF1-stimulated lipid synthesis, [^14C]acetate, RT112 cells; type: cell-based, human
Description: FIG. 8. FGFR3 signalling promotes the accumulation of matured SREBP1 and lipogenesis via PI3K-mTORC1 pathway. (A) Pharmacological inhibition of FGFR3 signalling. RT112 cells were serum starved for 20 hr, then treated with rapamycin (50 nM), Ly294002 (Ly294, 20 μM) and PD325901(PD901, 100 nM) for 2 hr, followed by stimulation with 30 ng/ml FGF1 plus 10 μg/mL of heparin for 10 min. Cell lysates were subjected to immunoblot analyses with indicated antibodies. Note the increased phosphorylation of MEK upon PD901 treatment, presumably due to a relief of feedback inhibition. (B) PI3K-mTORC1 and MEK inhibitors block FGF1 induction of SREBP1 and SCD1 in RT112 cells. RT112 cells were serum starved for 20 hr, treated with kinase inhibitors for 4 hr, followed by 24 hr incubation in medium supplemented with 30 ng/ml FGF1. Cell lysates were immunoblotted to detect SREBP1 maturation, SCD1 and FASN expression. […] The lipid fraction was extracted and [^14C]acetate incorporated into lipids was measured by scintillation counting. […]
Lipogenic activity was determined by monitoring the incorporation of [1,2-^14C] acetate (Perkin Elmer, Waltham, Mass.) into fatty acids as reported (39). […] The fatty acids fractions were collected, dried under a steam of nitrogen, and analyzed by scintillation counting. The [^14C] radioactivity was normalized to sample protein content. […]

[9] = system: phosphorylation of AKT, S6, and MAPK; assay: Western blot, FGF1-stimulated RT112 cells; type: cell-based, human; settings: rapamycin 50 nM, Ly294002 20 μM, PD325901 100 nM
Description: FIG. 8. FGFR3 signalling promotes the accumulation of matured SREBP1 and lipogenesis via PI3K-mTORC1 pathway. (A) Pharmacological inhibition of FGFR3 signalling. RT112 cells were serum starved for 20 hr, then treated with rapamycin (50 nM), Ly294002 (Ly294, 20 μM) and PD325901(PD901, 100 nM) for 2 hr, followed by stimulation with 30 ng/ml FGF1 plus 10 μg/mL of heparin for 10 min. Cell lysates were subjected to immunoblot analyses with indicated antibodies. Note the increased phosphorylation of MEK upon PD901 treatment, presumably due to a relief of feedback inhibition. (B) PI3K-mTORC1 and MEK inhibitors block FGF1 induction of SREBP1 and SCD1 in RT112 cells. RT112 cells were serum starved for 20 hr, treated with kinase inhibitors for 4 hr, followed by 24 hr incubation in medium supplemented with 30 ng/ml FGF1. Cell lysates were immunoblotted to detect SREBP1 maturation, SCD1 and FASN expression. (C) PI3K-mTORC1 and MEK inhibitors block FGF1-stimulated lipid synthesis. RT112 cells were treated the same as described in (B). [^14C]acetate was added for the final 4 hr incubation. The lipid fraction was extracted and [^14C]acetate incorporated into lipids was measured by scintillation counting. Data were normalized to sample protein content, and presented as mean+/−SD. […]

[10] = system: matured SREBP1 and SCD1 expression; assay: Western blot, FGF1-treated Ca129 cells; type: cell-based, human
Description: FIG. 9. FGFR3 signalling promotes the accumulation of matured SREBP1 and SCD1 expression via PI3K-mTORC1 pathway but not MEK-MAPK pathway in Ca129 cells. Ca129 cells were serum starved for 20 hr, treated for 4 hr with vehicle (DMSO), 50 nM rapamycin (Rapa), Ly294002 (Ly294, 20 μM) and PD325901(PD901, 100 nM). Then cells were cultured in medium supplemented with 30 ng/ml FGF1 for 24 hr. Cell lysates were analyzed by Western blot.
(§1) It's worth noting that in Ca129 bladder cancer cells, rapamycin and Ly294002 blocked the accumulation of active SREBP1 and the expression of SCD1, consistent with the results observed in RT112 cells (FIG. 9). […] Thus, in bladder cancer cells, FGFR3 mainly signals through PI3K-mTORC1 axis to promote SREBP1 cleavage and activation, resulting in elevated de novo lipogenesis and fatty acid desaturation. The contribution of MEK-MAPK pathway may be cell line- and/or context-dependent.

[11] = system: SREBP1 maturation, SCD1 and FASN expression; assay: Western blot, FGF1-treated RT112 cells; type: cell-based, human
Description: FIG. 8. FGFR3 signalling promotes the accumulation of matured SREBP1 and lipogenesis via PI3K-mTORC1 pathway. (A) Pharmacological inhibition of FGFR3 signalling. RT112 cells were serum starved for 20 hr, then treated with rapamycin (50 nM), Ly294002 (Ly294, 20 μM) and PD325901(PD901, 100 nM) for 2 hr, followed by stimulation with 30 ng/ml FGF1 plus 10 μg/mL of heparin for 10 min. Cell lysates were subjected to immunoblot analyses with indicated antibodies. Note the increased phosphorylation of MEK upon PD901 treatment, presumably due to a relief of feedback inhibition. (B) PI3K-mTORC1 and MEK inhibitors block FGF1 induction of SREBP1 and SCD1 in RT112 cells. RT112 cells were serum starved for 20 hr, treated with kinase inhibitors for 4 hr, followed by 24 hr incubation in medium supplemented with 30 ng/ml FGF1. Cell lysates were immunoblotted to detect SREBP1 maturation, SCD1 and FASN expression. (C) PI3K-mTORC1 and MEK inhibitors block FGF1-stimulated lipid synthesis. RT112 cells were treated the same as described in (B). [^14C]acetate was added for the final 4 hr incubation. The lipid fraction was extracted and [^14C]acetate incorporated into lipids was measured by scintillation counting. Data were normalized to sample protein content, and presented as mean+/−SD.
as §1

[12] = system: HT29; assay: Cell viability, CellTiter-Glo; type: cell-based, human; settings: for pIC50: Homo sapiens, HT-29, 72 h
Description: (§2) For SCD1 small molecule inhibitor experiment, cells were treated with indicated concentration of A37062 (Abbott compound 4c) or G02447171.1 (Daichii compound 24) in DMSO or DMSO alone for 48-72 hr. Cell viability was assessed with CellTiter-Glo at 72 hr post treatment (Promega). Activation of caspase 3 and caspase 7 was measured with the Caspase-Glo 3/7 assay kit at 48 hr after treatment (Promega). Values are presented as mean+/−SD of quadruplets. Data are representative of at least three independent experiments.
(§3) To investigate the effect of SCD1 small molecule antagonists on cancer cell lines were treated with serially diluted A37062 for 72 hr, and […] cell viability was measured by CellTiter-Glo (Promega) as described above.
(§4) To investigate the effect of additional SCD1 small molecule antagonists, HT29 and HCT15 were treated with serially diluted small molecule inhibitors RG1-14 and G02447171 (G7171) for 72 hr, and cell viability was measured by CellTiter-Glo (Promega). The specificity and selectivity of the SCD1 small molecule inhibitors was also evaluated.

[13] = system: HCT-15; assay: Cell viability, CellTiter-Glo; type: cell-based, human; settings: for pIC50: Homo sapiens, HCT-15, 72 h
Description: as §2, §3, §4

Chain of Δ5 desaturase (O60427 whole entry, stated change not applied): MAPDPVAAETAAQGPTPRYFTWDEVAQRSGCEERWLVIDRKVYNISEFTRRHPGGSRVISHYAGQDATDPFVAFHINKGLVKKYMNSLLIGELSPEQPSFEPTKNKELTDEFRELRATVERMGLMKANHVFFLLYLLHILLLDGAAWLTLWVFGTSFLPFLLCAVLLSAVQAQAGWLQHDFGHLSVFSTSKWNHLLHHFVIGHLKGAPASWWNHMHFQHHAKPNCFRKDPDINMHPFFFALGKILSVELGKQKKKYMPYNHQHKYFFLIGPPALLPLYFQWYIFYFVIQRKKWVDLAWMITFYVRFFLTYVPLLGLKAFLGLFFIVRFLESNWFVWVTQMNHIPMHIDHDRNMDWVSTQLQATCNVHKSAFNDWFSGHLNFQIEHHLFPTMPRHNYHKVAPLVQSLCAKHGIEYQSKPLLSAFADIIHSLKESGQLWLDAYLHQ

Cc1nc(-n2ccc(OCc3ccc(F)cc3)cc2=O)sc1C(=O)NCc1ccc(Cl)nc1 [Compound 18]
pIC50 [1]: 7.30

Cc1nc(-n2ccc3c(O)cccc3c2=O)sc1C(=O)NCc1ccccc1 [Compound 19]
pIC50 [1]: 7.52

O=C(NCc1cccnc1)c1sc(N2CCN(Cc3ccc(F)cc3)C2=O)nc1C(F)(F)F [Compound 21]
pIC50 [1]: 7.38

O=C(NCc1cccnc1)c1sc(N2CCN(Cc3ccc(F)cc3)C2=O)nc1C(F)(F)F [Compound 23]
pIC50 [1]: 8.00

Cc1nnc(-c2ccc(N3CCC(Oc4cc(F)ccc4Cl)CC3)nn2)o1 [Compound 49]
pIC50 [2]: 7.43

COc1ccc(-c2nc3cnc(NCc4ccc(Cl)c(Cl)c4)nc3n(CCNC(C)=O)c2=O)cc1 [Compound 51]
pIC50 [2]: 6.55
pIC50 [3]: 6.60

COc1ccc(-c2nc3ccc(NCc4ccc(Cl)c(C(F)(F)F)c4)cc3n(CCNC(C)=O)c2=O)cc1 [Compound 54]
stability in HLM [4]: greater than 50%
selectivity against Δ5 desaturase [5]: selective
stability in RLM [6]: greater than 50%
selectivity against Δ6 desaturase [7]: selective

O=C1O[C@@H](CO)CN1c1ccc(N2CCC(Oc3ccccc3C(F)(F)F)CC2)nc1 [Compound 67]
inhibition of human SCD1 ([2]; at 10 μM): 99%

O=C(NOC[C@H](O)CO)c1ccc(F)c(F)c1Nc1ccc(I)cc1F [PD325901]
total fatty acid synthesis stimulated by FGF1 [8]: markedly suppressed
FGF1-induced activation of intended target (phosphorylation) [9]: blunted FGF1-induced activation of their intended target
accumulation of active SREBP1 [10]: only partially reduced
expression / induction of SCD1 [10]: did not have much effect
FASN expression [11]: reduced only modestly
SCD1 expression [11]: diminished significantly
basal and FGF1-induced level of the cleaved active SREBP1 [11]: substantially reduced

O=c1cc(N2CCN(Cc3cc(Cl)cc(Cl)c3O)CC2)nc[nH]1 [RG1]
cell proliferation, oleate / palmitate supplement ([12]; HT29 cells): suppress cell proliferation in a fatty acid desaturation-dependent manner
pIC50 ([12]; Experiment 1 HT29, 72 hr): 7.02
pIC50 ([12]; Experiment 2 HT29, 72 hr): 7.47
cell proliferation, oleate / palmitate supplement ([13]; HCT15 cells): suppress cell proliferation in a fatty acid desaturation-dependent manner
pIC50 ([13]; Experiment 1 HCT15, 72 hr): 8.23
pIC50 ([13]; Experiment 2 HCT15, 72 hr): 7.87
